Results as given in PubChem BioAssay (NCI).
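Method: 48-hour compound exposure of cells in 96-well plates, five concentrations, linear interpolation of endpoints. TGI is the concentration that stops growth completely.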

Assays:
Experiment in all cases: NCI-60 cell line screen, 48 h
SN12C renal = test system: SN12C renal
786-0 renal = test system: 786-0 renal
A498 renal = test system: A498 renal
NCI-H460 lung = test system: NCI-H460 lung
COLO 205 colon = test system: COLO 205 colon
NCI-H23 lung = test system: NCI-H23 lung
HL-60(TB) leukemia = test system: HL-60(TB) leukemia
A549 NSCLC = test system: A549 NSCLC
HCT-116 colon = test system: HCT-116 colon
SF-539 CNS = test system: SF-539 CNS
K-562 leukemia = test system: K-562 leukemia
OVCAR-5 ovarian = test system: OVCAR-5 ovarian
SK-MEL-2 melanoma = test system: SK-MEL-2 melanoma
MALME-3M melanoma = test system: MALME-3M melanoma
BT-549 breast = test system: BT-549 breast
NCI-H226 lung = test system: NCI-H226 lung
SK-OV-3 ovarian = test system: SK-OV-3 ovarian
EKVX NSCLC = test system: EKVX NSCLC
HT29 colon = test system: HT29 colon
UACC-62 melanoma = test system: UACC-62 melanoma
SNB-19 CNS = test system: SNB-19 CNS
SK-MEL-5 melanoma = test system: SK-MEL-5 melanoma
SW-620 colon = test system: SW-620 colon
UO-31 renal = test system: UO-31 renal
TK-10 renal = test system: TK-10 renal
HOP-62 NSCLC = test system: HOP-62 NSCLC
SF-268 CNS = test system: SF-268 CNS
HCT-15 colon = test system: HCT-15 colon
SF-295 CNS = test system: SF-295 CNS
MCF7 breast = test system: MCF7 breast
DU-145 prostate = test system: DU-145 prostate
CCRF-CEM leukemia = test system: CCRF-CEM leukemia
OVCAR-4 ovarian = test system: OVCAR-4 ovarian
SNB-75 CNS = test system: SNB-75 CNS
MDA-MB-435 = test system: MDA-MB-435
OVCAR-8 ovarian = test system: OVCAR-8 ovarian
PC-3 prostate = test system: PC-3 prostate
HOP-92 NSCLC = test system: HOP-92 NSCLC
OVCAR-3 ovarian = test system: OVCAR-3 ovarian
NCI-H522 lung = test system: NCI-H522 lung
LOX IMVI melanoma = test system: LOX IMVI melanoma
U251 CNS = test system: U251 CNS
SR leukemia = test system: SR leukemia
HCC-2998 colon = test system: HCC-2998 colon
UACC-257 melanoma = test system: UACC-257 melanoma
IGROV1 ovarian = test system: IGROV1 ovarian
HS 578T breast = test system: HS 578T breast
RXF 393 renal = test system: RXF 393 renal
SK-MEL-28 melanoma = test system: SK-MEL-28 melanoma
CAKI-1 renal = test system: CAKI-1 renal
ACHN renal = test system: ACHN renal
NCI/ADR-RES ovarian = test system: NCI/ADR-RES ovarian
MOLT-4 leukemia = test system: MOLT-4 leukemia
KM12 colon = test system: KM12 colon
M14 melanoma = test system: M14 melanoma

N#Cc1[nH]c(=S)[nH]c1N
TGI (SN12C renal): > 100 µM | TGI (786-0 renal): > 100 µM | TGI (A498 renal): > 100 µM | TGI (NCI-H460 lung): > 100 µM | TGI (COLO 205 colon): > 100 µM | TGI (NCI-H23 lung): > 100 µM | TGI (HL-60(TB) leukemia): > 100 µM | TGI (A549 NSCLC): > 100 µM | TGI (HCT-116 colon): > 100 µM | TGI (SF-539 CNS): > 100 µM | TGI (K-562 leukemia): > 100 µM | TGI (OVCAR-5 ovarian): > 100 µM | TGI (SK-MEL-2 melanoma): > 100 µM | TGI (MALME-3M melanoma): > 100 µM | TGI (BT-549 breast): > 100 µM | TGI (NCI-H226 lung): > 100 µM | TGI (SK-OV-3 ovarian): > 100 µM | TGI (EKVX NSCLC): > 100 µM | TGI (HT29 colon): > 100 µM | TGI (UACC-62 melanoma): > 100 µM | TGI (SNB-19 CNS): > 100 µM | TGI (SK-MEL-5 melanoma): > 100 µM | TGI (SW-620 colon): > 100 µM | TGI (UO-31 renal): > 100 µM | TGI (TK-10 renal): > 100 µM | TGI (HOP-62 NSCLC): > 100 µM | TGI (SF-268 CNS): > 100 µM | TGI (HCT-15 colon): > 100 µM | TGI (SF-295 CNS): > 100 µM | TGI (MCF7 breast): > 100 µM | TGI (DU-145 prostate): > 100 µM | TGI (CCRF-CEM leukemia): > 100 µM | TGI (OVCAR-4 ovarian): > 100 µM | TGI (SNB-75 CNS): > 100 µM | TGI (MDA-MB-435): > 100 µM | TGI (OVCAR-8 ovarian): > 100 µM | TGI (PC-3 prostate): > 100 µM | TGI (HOP-92 NSCLC): > 100 µM | TGI (OVCAR-3 ovarian): > 100 µM | TGI (NCI-H522 lung): > 100 µM | TGI (LOX IMVI melanoma): > 100 µM | TGI (U251 CNS): > 100 µM | TGI (SR leukemia): > 100 µM | TGI (HCC-2998 colon): > 100 µM | TGI (UACC-257 melanoma): > 100 µM | TGI (IGROV1 ovarian): > 100 µM | TGI (HS 578T breast): > 100 µM | TGI (RXF 393 renal): > 100 µM | TGI (SK-MEL-28 melanoma): > 100 µM | TGI (CAKI-1 renal): > 100 µM | TGI (ACHN renal): > 100 µM | TGI (NCI/ADR-RES ovarian): > 100 µM

COc1ccc(-n2cnn3c(=O)c4cn[nH]c4nc23)cc1
TGI (SN12C renal): > 10 µM | TGI (786-0 renal): > 10 µM | TGI (NCI-H460 lung): > 10 µM | TGI (NCI-H23 lung): > 10 µM | TGI (HL-60(TB) leukemia): > 10 µM | TGI (A549 NSCLC): > 10 µM | TGI (HCT-116 colon): > 10 µM | TGI (SF-539 CNS): > 10 µM | TGI (K-562 leukemia): > 10 µM | TGI (OVCAR-5 ovarian): > 10 µM | TGI (MALME-3M melanoma): > 10 µM | TGI (BT-549 breast): > 10 µM | TGI (NCI-H226 lung): > 10 µM | TGI (MOLT-4 leukemia): > 10 µM | TGI (SK-OV-3 ovarian): > 10 µM | TGI (EKVX NSCLC): > 10 µM | TGI (HT29 colon): > 10 µM | TGI (KM12 colon): > 10 µM | TGI (SNB-19 CNS): > 10 µM | TGI (SK-MEL-5 melanoma): > 10 µM | TGI (UO-31 renal): > 10 µM | TGI (TK-10 renal): > 10 µM | TGI (SF-268 CNS): > 10 µM | TGI (SF-295 CNS): > 10 µM | TGI (MCF7 breast): > 10 µM | TGI (DU-145 prostate): > 10 µM | TGI (CCRF-CEM leukemia): > 10 µM | TGI (OVCAR-4 ovarian): > 10 µM | TGI (SNB-75 CNS): > 10 µM | TGI (MDA-MB-435): > 10 µM | TGI (M14 melanoma): > 10 µM | TGI (OVCAR-8 ovarian): > 10 µM | TGI (PC-3 prostate): > 10 µM | TGI (HOP-92 NSCLC): > 10 µM | TGI (OVCAR-3 ovarian): > 10 µM | TGI (NCI-H522 lung): > 10 µM | TGI (LOX IMVI melanoma): > 10 µM | TGI (U251 CNS): > 10 µM | TGI (SR leukemia): > 10 µM | TGI (HCC-2998 colon): > 10 µM | TGI (UACC-257 melanoma): > 10 µM | TGI (HS 578T breast): > 10 µM | TGI (ACHN renal): > 10 µM
